The target in one experiment is T1, MycN (Homo sapiens, UniProt P04198).
T1 construct: endogenous in cells; host or cells: SK-N-BE(2)
T1 sequence (P04198 1-464): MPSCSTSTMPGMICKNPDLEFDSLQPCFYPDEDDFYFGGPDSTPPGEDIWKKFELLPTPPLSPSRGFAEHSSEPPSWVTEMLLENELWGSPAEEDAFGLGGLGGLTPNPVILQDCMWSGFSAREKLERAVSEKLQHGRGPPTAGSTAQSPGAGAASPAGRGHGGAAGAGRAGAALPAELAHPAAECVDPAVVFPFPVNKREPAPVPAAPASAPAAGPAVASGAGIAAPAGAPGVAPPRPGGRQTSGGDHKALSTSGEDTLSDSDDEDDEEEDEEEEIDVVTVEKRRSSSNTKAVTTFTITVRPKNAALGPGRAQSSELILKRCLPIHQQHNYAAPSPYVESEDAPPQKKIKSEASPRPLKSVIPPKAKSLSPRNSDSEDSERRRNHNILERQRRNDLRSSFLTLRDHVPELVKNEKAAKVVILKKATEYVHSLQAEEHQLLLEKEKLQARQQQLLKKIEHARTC
Briefly: Degradation of MycN protein in SK-N-BE(2) cells, JESS/Western blot of lysates. In kind it is cell-based. The note with it: for Dmax at 6 µM / Dmax at 0.5 µM / Dmax at 1 µM / Dmax at 3 µM: SKNBE2, 24 h; for Dmax at 6 µM: read-out: % Degradation of MycN (SKNBE2) 24 h, 6 μM; for Dmax at 0.5 µM: read-out: % Degradation of MycN (SKNBE2) 24 h, 0.5 μM; for Dmax at 1 µM: read-out: % Degradation of MycN (SKNBE2) 24 h, 1 μM; for Dmax at 3 µM: read-out: % Degradation of MycN (SKNBE2) 24 h, 3 μM. The procedure, abridged:
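SK-N-BE(2) adherent cells (5E5 per well of a 6 well dish) were grown 24 hrs, then exposed to compounds diluted 1 in 20 in media, with DMSO controls, for 24 hrs. Cells were scraped, pelleted, PBS washed and lysed in RIPA buffer cocktail; after BCA protein quantitation, n-myc was detected by chemiluminescence on JESS/Western blot with tubulin and GAPDH loading controls read in the near infra red channel.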

A further experiment has as its target T2, MycC (Homo sapiens, UniProt P01106).
T2 construct: endogenous in cells; host or cells: L363
Nature of the experiment: Degradation of MycC protein in L363 cells, JESS/Western blot of lysates. The experiment is classed as cell-based. The following applies: for Dmax at 0.5 µM / Dmax at 6 µM / Dmax at 1 µM / Dmax at 3 µM: L-363, 24 h; for Dmax at 0.5 µM: read-out: % Degradation of MycC (L-363) 24 h, 0.5 μM; for Dmax at 6 µM: read-out: % Degradation of MycC (L-363) 24 h, 6 μM; for Dmax at 1 µM: read-out: % Degradation of MycC (L-363) 24 h, 1 μM; for Dmax at 3 µM: read-out: % Degradation of MycC (L-363) 24 h, 3 μM. The procedure, abridged:
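L363 suspension cells were seeded at 1E6 cells per well and exposed to compound (stock 10 mM in DMSO) for 24 hrs. Cells were collected, spun down, rinsed with PBS, lysed in RIPA buffer cocktail on ice, clarified and kept at −80 degrees. Lysate protein was quantified by BCA, and c-myc was measured on JESS by chemiluminescence with tubulin and GAPDH loading controls in the NIR channel.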
(Immunoblotting shows a protein as a band on a membrane.)

Like-named read-outs stand apart in the source and are kept apart here.

T2 sequence (P01106 whole entry): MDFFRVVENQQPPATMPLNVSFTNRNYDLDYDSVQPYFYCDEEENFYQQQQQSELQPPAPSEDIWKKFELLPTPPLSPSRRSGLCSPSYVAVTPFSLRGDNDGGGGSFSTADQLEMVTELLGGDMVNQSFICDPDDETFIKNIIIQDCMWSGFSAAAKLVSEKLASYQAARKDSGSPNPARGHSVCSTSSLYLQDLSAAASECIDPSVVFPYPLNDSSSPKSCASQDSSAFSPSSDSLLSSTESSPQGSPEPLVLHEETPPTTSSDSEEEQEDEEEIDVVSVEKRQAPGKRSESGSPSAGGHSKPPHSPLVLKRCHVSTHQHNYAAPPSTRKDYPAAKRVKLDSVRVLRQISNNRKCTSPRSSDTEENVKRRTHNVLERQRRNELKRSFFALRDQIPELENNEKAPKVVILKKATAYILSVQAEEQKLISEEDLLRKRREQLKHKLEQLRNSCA

In the case of `CC(N)C1CCCN(c2nccc(Nc3cc(C4CC4)[nH]n3)n2)C1` (single isomer, unassigned) [Compound 159, 2-[3-(1-Aminoethyl)-1-piperidyl]-N-(5-cyclopropyl-1H-pyrazol-3-yl)pyrimidin-4-amine], on MycN (SKNBE2 cells, 24 h, 6 μM), the Dmax at 6 µM is 80 to 100% and the “% Degradation of MycN (SKNBE2) 24 h, 6 μM” value is “**** (degradation 80-100%)”. Besides, at MycC (L-363 cells, 24 h, 0.5 μM), the Dmax at 0.5 µM lay in the range of 20 to 49% and the “% Degradation of MycC (L-363) 24 h, 0.5 μM” value was “** (degradation 20-49%)”. Moreover, at MycC (L-363 cells, 24 h, 6 μM), the Dmax at 6 µM fell in the range of 80 to 100% and the “% Degradation of MycC (L-363) 24 h, 6 μM” value was “**** (degradation 80-100%)”.
As to `CNC[C@@H]1CCCN(c2nccc(Nc3cc(C4CC4)[nH]n3)n2)C1` [Compound 37, N-(5-cyclopropyl-1H-pyrazol-3-yl)-2-[(3S)-3-(methylaminomethyl)-1-piperidyl]pyrimidin-4-amine], the Dmax at 0.5 µM on MycN (SKNBE2 cells, 24 h, 0.5 μM) was 20 to 49%. In addition, the Dmax at 1 µM at MycN (SKNBE2 cells, 24 h, 1 μM) was 20 to 49%; on MycC (L-363 cells, 24 h, 1 μM), less than 20%. The Dmax at 3 µM is 50 to 79% at MycN (SKNBE2 cells, 24 h, 3 μM) and less than 20% at MycC (L-363 cells, 24 h, 3 μM). Besides, the Dmax at 6 µM at MycN (SKNBE2 cells, 24 h, 6 μM) was 80 to 100%.
With `c1cc(Nc2cc(C3CC3)[nH]n2)nc(N2C[C@H]3CNC[C@@H]3C2)n1` (racemic) [Compound 50, N-(5-Cyclopropyl-1H-pyrazol-3-yl)-2-[rac-(3aR,6aR)-2,3,3a,4,6,6a-hexahydro-1H-pyrrolo[3,4-c]pyrrol-5-yl]pyrimidin-4-amine], the Dmax at 0.5 µM at MycN (SKNBE2 cells, 24 h, 0.5 μM) is 20 to 49%; at MycC (L-363 cells, 24 h, 0.5 μM), 20 to 49%. The Dmax at 1 µM was 20 to 49% on MycN (SKNBE2 cells, 24 h, 1 μM) and less than 20% at MycC (L-363 cells, 24 h, 1 μM). Also, the Dmax at 3 µM on MycN (SKNBE2 cells, 24 h, 3 μM) lay in the range of 50 to 79%; at MycC (L-363 cells, 24 h, 3 μM), 20 to 49%. For the same compound, the Dmax at 6 µM at MycN (SKNBE2 cells, 24 h, 6 μM) lay within 80 to 100%; at MycC (L-363 cells, 24 h, 6 μM) it was 50 to 79%.
Take `CN[C@H]1CCN(c2nccc(Nc3cc(C4CC4)[nH]n3)n2)C1` [Compound 8, (S)—N-(5-cyclopropyl-1H-pyrazol-3-yl)-2-(3-(methylamino)pyrrolidin-1-yl)pyrimidin-4-amine]: the Dmax at 3 µM on MycN (SKNBE2 cells, 24 h, 3 μM) was less than 20%; at MycC (L-363 cells, 24 h, 3 μM), 20 to 49%. The Dmax at 0.5 µM at MycC (L-363 cells, 24 h, 0.5 μM) is less than 20%. For the same compound, at MycC (L-363 cells, 24 h, 1 μM), the Dmax at 1 µM was less than 20%.
For the compound `CC(C)NCC12CC(C1)N(c1nccc(Nc3cc(C4CCCC4)[nH]n3)n1)C2` [Compound 78, N-(5-Cyclopentyl-1H-pyrazol-3-yl)-2-[4-[(isopropylamino)methyl]-2-azabicyclo[2.1.1]hexan-2-yl]pyrimidin-4-amine], on MycN, the Dmax at 0.5 µM was less than 20%, the Dmax at 1 µM lay within 20 to 49%, the Dmax at 3 µM was 80 to 100% and the Dmax at 6 µM was 80 to 100%. At MycC, the Dmax at 1 µM is less than 20%, the Dmax at 3 µM fell in the range of 50 to 79% and the Dmax at 6 µM lay in the range of 80 to 100%.
On to `c1cc(Nc2cc(C3CC3)[nH]n2)nc(N2CC3(CCNC3)C2)n1` [Compound 25, N-(5-cyclopropyl-1H-pyrazol-3-yl)-2-(2,7-diazaspiro[3.4]octan-2-yl)pyrimidin-4-amine], for which the Dmax at 0.5 µM is 20 to 49% on MycN (SKNBE2 cells, 24 h, 0.5 μM) and less than 20% on MycC (L-363 cells, 24 h, 0.5 μM). Also, the Dmax at 1 µM was 20 to 49% on MycN (SKNBE2 cells, 24 h, 1 μM) and less than 20% on MycC (L-363 cells, 24 h, 1 μM). On MycN (SKNBE2 cells, 24 h, 3 μM), the Dmax at 3 µM lay within 20 to 49%. In addition, the Dmax at 6 µM on MycN (SKNBE2 cells, 24 h, 6 μM) is 20 to 49%.
For the compound `CNC[C@@H]1CCN(c2nccc(Nc3cc(C4CCCC4)[nH]n3)n2)C1` [Compound 36, N-(5-cyclopentyl-1H-pyrazol-3-yl)-2-[(3S)-3-(methylaminomethyl)pyrrolidin-1-yl]pyrimidin-4-amine], the Dmax at 0.5 µM was 20 to 49% on MycN (SKNBE2 cells, 24 h, 0.5 μM) and less than 20% on MycC (L-363 cells, 24 h, 0.5 μM). Besides, the Dmax at 1 µM at MycN (SKNBE2 cells, 24 h, 1 μM) is less than 20%; at MycC (L-363 cells, 24 h, 1 μM), 20 to 49%. The Dmax at 3 µM on MycN (SKNBE2 cells, 24 h, 3 μM) was 80 to 100%; on MycC (L-363 cells, 24 h, 3 μM) it was less than 20%. Besides, the Dmax at 6 µM at MycN (SKNBE2 cells, 24 h, 6 μM) lay within 80 to 100%; at MycC (L-363 cells, 24 h, 6 μM), 80 to 100%.
With `COCCNCC12CC(C1)N(c1nccc(Nc3cc(C4CCCC4)[nH]n3)n1)C2` [Compound 67, N-(5-Cyclopentyl-1H-pyrazol-3-yl)-2-[4-[(2-methoxyethylamino)methyl]-2-azabicyclo[2.1.1]hexan-2-yl]pyrimidin-4-amine], at MycN, the Dmax at 0.5 µM was less than 20%, the Dmax at 1 µM lay in the range of 50 to 79%, the Dmax at 3 µM is 80 to 100% and the Dmax at 6 µM lay within 80 to 100%. Moreover, on MycC, the Dmax at 0.5 µM is less than 20%, the Dmax at 1 µM is less than 20%, the Dmax at 3 µM was 80 to 100% and the Dmax at 6 µM lay within 80 to 100%.

The values above are taken from patent publication US20250170130A1, “MODULATORS OF MYC FAMILY PROTO-ONCOGENE PROTEIN” (Nalo Therapeutics, priority 2022, published 2025).
